Measured values published in paper PMC6446070, “Discovery of novel isoflavone derivatives as AChE/BuChE dual-targeted inhibitors: synthesis, biological evaluation and molecular modelling” (Journal of Enzyme Inhibition and Medicinal Chemistry, 2017).
Like-named read-outs stand apart in the source and are kept apart here.

Tests used:
AChE = target: T1, AChE (Rattus norvegicus, UniProt P37136); test: biochemical; details: for inhibition at 50 µM: read-out: Inhibition % at 50 μM AChE
T1 construct: AChE (0.5 U/mg) was extracted from rat cortex; from tissue; host or cells: rat cortex
T1 sequence (P37136 32-614): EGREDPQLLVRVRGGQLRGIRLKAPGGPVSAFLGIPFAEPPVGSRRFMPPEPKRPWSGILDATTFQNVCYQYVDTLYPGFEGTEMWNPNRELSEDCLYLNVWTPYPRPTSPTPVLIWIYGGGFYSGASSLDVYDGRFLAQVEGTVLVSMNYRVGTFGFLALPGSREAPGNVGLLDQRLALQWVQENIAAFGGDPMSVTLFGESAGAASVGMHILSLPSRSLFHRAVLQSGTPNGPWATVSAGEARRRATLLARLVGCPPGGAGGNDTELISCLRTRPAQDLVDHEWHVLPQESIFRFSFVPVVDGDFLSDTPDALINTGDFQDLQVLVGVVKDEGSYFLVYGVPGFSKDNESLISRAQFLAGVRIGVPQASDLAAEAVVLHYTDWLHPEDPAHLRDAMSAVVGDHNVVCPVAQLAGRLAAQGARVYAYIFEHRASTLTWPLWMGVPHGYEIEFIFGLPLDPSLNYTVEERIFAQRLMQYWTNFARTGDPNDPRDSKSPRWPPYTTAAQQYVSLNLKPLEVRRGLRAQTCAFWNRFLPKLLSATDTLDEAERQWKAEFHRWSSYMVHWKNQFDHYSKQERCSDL
Experimental: (§1) To measure in vitro AChE/BuChE activity, modified Ellman's method[27–30] was performed using a 96-well plate reader (BioTek ELx808). AChE (0.5 U/mg) was extracted from rat cortex while BuChE (3.4 U/mg) was obtained from human plasma. Each well contained 50 μl potassium phosphate buffer (KH2PO4/K2HPO4, 0.1 M, pH 8.0), 25 μl test compounds and 25 μl enzyme. […] They were pre-incubated for 60 min at 37 °C, and then 125 μl 5,5′-dithiobis-2-nitrobenzoic acid (DNTB, 3 mM in buffer) was added. […] A control experiment was performed under the same condition without any inhibitor and the blank contained buffer, water, DTNB and substrate. The described method was also performed for BuChE bioassay.

BuChE = target: T2, BuChE (Homo sapiens, UniProt P06276); test: biochemical; details: for inhibition at 50 µM: read-out: Inhibition % at 50 μM BuChE
T2 construct: BuChE (3.4 U/mg) was obtained from human plasma; from tissue; host or cells: human plasma
T2 sequence (P06276 29-602): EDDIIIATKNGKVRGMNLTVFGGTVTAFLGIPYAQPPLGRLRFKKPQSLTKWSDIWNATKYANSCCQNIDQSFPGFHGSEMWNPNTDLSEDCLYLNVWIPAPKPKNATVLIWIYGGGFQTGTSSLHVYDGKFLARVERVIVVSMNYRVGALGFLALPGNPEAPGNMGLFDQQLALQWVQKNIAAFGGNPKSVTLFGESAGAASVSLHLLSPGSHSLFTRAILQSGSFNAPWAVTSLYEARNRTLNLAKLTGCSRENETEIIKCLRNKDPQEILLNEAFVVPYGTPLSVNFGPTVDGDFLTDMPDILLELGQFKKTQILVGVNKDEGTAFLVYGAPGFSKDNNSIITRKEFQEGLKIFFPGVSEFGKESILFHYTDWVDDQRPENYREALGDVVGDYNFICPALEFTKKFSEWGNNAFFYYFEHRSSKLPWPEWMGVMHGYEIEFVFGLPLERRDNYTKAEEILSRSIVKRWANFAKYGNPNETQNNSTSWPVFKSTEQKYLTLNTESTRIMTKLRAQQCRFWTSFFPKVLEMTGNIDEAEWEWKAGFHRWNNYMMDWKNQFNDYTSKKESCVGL
Experimental: as §1

[1] = 50 μM compound, AChE extracted from rat cortex, pre-incubated 60 min at 37 °C
[2] = 50 μM compound, BuChE from human plasma, pre-incubated 60 min at 37 °C
[3] = BuChE from human plasma, read-out: IC50 (μM) BuChE

Structure (SMILES)	inhibition at 50 µM (AChE; [1]) [%]	inhibition at 50 µM (BuChE; [2]) [%]	IC50 (BuChE; [3]) [µM]	other results
COc1ccc(-c2coc3cc(OCC(=O)N4CCCCC4)ccc3c2=O)cc1 [compound 17, 3-(4-Methoxyphenyl)-7-(2-oxo-2-(piperidin-1-yl)ethoxy)-4H-chromen4-one]	0.54	-2.83		
COc1ccc(-c2coc3cc(OCCCCNCCc4c[nH]c5ccc(OC)cc45)ccc3c2=O)cc1 [compound 9, 7-(4((2-(5-Methoxy-1H-indol-3-yl)ethyl)amino)butoxy)-3-(4-methoxyphenyl)-4H-chromen-4-one]	0.72	37.9		
O=c1c(-c2ccc(OCCN3CCCCC3)cc2)coc2cc(OCCN3CCCCC3)ccc12 [compound 16, 7-(2-(Piperidin-1-yl)ethoxy)-3-(4-(2-(piperidin-1-yl)ethoxy)phenyl)-4H-chrom en-4-one]	100	99.7	5.92	IC50 (AChE; AChE extracted from rat cortex): 4.6 µM
CCN(C)CCCCOc1ccc2c(=O)c(-c3ccc(OC)cc3)coc2c1 [compound 6, 7-(4-(Ethyl(methyl)amino)butoxy)-3-(4-methoxyphenyl)-4H-chromen-4-one]	63.8	94.8		
C#CCNCCOc1ccc2c(=O)c(-c3ccc(OC)cc3)coc2c1 [compound 12, 3-(4-Methoxyphenyl)-7-(2-(prop-2-yn-1-ylamino)ethoxy)-4H-chromen-4-one]	5.47	-16.9		
COc1ccc(-c2coc3cc(OCCN4CCCCC4)cc(O)c3c2=O)cc1 [compound 1, 5-Hydroxy-3-(4-mehtoxyphenyl)-7-(2-(piperidin-1-yl)ethoxy)-4H-chromen-4-one]			4.12	Inhibition % at 50 μM AChE (AChE; [1]): 71.10%; IC50 (AChE; AChE extracted from rat cortex): 10.3 µM; Inhibition % at 50 μM BuChE (BuChE; [2]): 95.74%
CC(C)NP(=O)(NC(C)C)OP(=O)(NC(C)C)NC(C)C [Iso-OMPA, tetraisopropyl pyrophosphoramide, reference compound]				inhibition at 50 µM (BuChE): 94.3%
O=c1c(-c2ccc(O)cc2)coc2cc(OCCN3CCCC3)ccc12 [compound 15, 3-(4-Hyroxyphenyl)-7-(2-(pyrrolidin-1-yl)ethoxy)-4H-chromen-4-one]			7.19	Inhibition % at 50 μM AChE (AChE; [1]): 75.22%; Inhibition % at 50 μM BuChE (BuChE; [2]): 99.88%
C#CCNC(=O)OCCOc1ccc2c(=O)c(-c3ccc(OC)cc3)coc2c1 [compound 20, 2-((3-(4-Methoxyphenyl)-4-oxo-4H-chromen-7-yl)oxy)ethyl prop-2-yn-1-ylc-arbamate]				Inhibition % at 50 μM AChE (AChE; [1]): −4.84%; Inhibition % at 50 μM BuChE (BuChE; [2]): −5.49%
COc1ccc(-c2coc3cc(OCCCNCCc4c[nH]c5ccc(OC)cc45)ccc3c2=O)cc1 [compound 8, 7-(3-((2-(5-Methoxy-1H-indol-3-yl)ethyl)amino)propoxy)-3-(4-methoxyphenyl)-4H-chromen-4-one]	2.42	60.6	15.6	
COc1ccc(-c2coc3cc(OCCC(=O)N4CCCCC4)ccc3c2=O)cc1 [compound 18, 3-(4-Methoxyphenyl)-7-(3-oxo-3-(piperidin-1-yl)propoxy)-4H-chromen-4-one]	-2.36	5.59		
COc1ccc(-c2coc3cc(OCCNC45CC6C[C@@](C)(C4)C[C@](C)(C6)C5)ccc3c2=O)cc1 [compound 13, 7-(2-(((3 R,5 S,7r)-3,5-dimethyladamantan-1-yl)amino)ethoxy)-3-(4-methoxyphenyl)-4H-chromen-4-one]				Inhibition % at 50 μM AChE (AChE; [1]): 17.61%; Inhibition % at 50 μM BuChE (BuChE; [2]): −6.62%
COc1ccc(-c2coc3cc(OCCCN4CCCCC4)ccc3c2=O)cc1 [compound 2, 3-(4-Methoxyphenyl)-7-(3-(piperidin-1-yl)propoxy)-4H-chromen-4-one]	28.3	97	23.2	
O=c1c(-c2ccc(O)cc2)coc2cc(OCCN3CCCCC3)ccc12 [compound 14, 3-(4-Hydroxyphenyl)-7-(2-(piperidin-1-yl)ethoxy)-4H-chromen-4-one]	79.4	99.9	7.66	IC50 (AChE; AChE extracted from rat cortex): 9.75 µM
COc1ccc(-c2coc3cc(OCCN(Cc4ccccc4)Cc4ccccc4)ccc3c2=O)cc1 [compound 11, 7-(2-(Dibenzylamino)ethoxy)-3-(4-methoxyphenyl)-4H-chromen-4-one]	-6.27	-18.5		
COc1ccc(-c2coc3cc(OCCN4CCCCC4C)ccc3c2=O)cc1 (stereo not shown) [G]			3.37	IC50 (AChE; AChE extracted from rat cortex): 1.47 µM
COc1ccc(-c2coc3cc(OCCCCN4CCCCC4)ccc3c2=O)cc1 [compound 3, 3-(4-Methoxyphenyl)-7-(4-(piperidin-1-yl)butoxy)-4-H-chromen-4-one]			11.1	Inhibition % at 50 μM AChE (AChE; [1]): 85.65%; IC50 (AChE; AChE extracted from rat cortex): 46.4 µM; Inhibition % at 50 μM BuChE (BuChE; [2]): 98.11%
COc1ccc(-c2coc3cc(OCCNCCc4c[nH]c5ccc(OC)cc45)ccc3c2=O)cc1 [compound 7, 7-(2-((2-(5-Methoxy-1H-indol-3-yl)ethyl)amino)ethoxy)-3-(4-methoxyphenyl)-4H-chr-omen-4-one]				Inhibition % at 50 μM AChE (AChE; [1]): 3.68%; Inhibition % at 50 μM BuChE (BuChE; [2]): 45.74%
COc1ccc(-c2coc3cc(OCCOC(=O)N4CCCCC4)ccc3c2=O)cc1 [compound 19, 2-((3-(4-Methoxyphenyl)-4-oxo-4H-chromen-7-yl)oxy)ethyl piperidine-1-carboxylate]				inhibition at 50 µM (AChE): -11.6%; IC50 (BuChE): 9.59 µM; inhibition at 50 µM (BuChE): 53%
CCN(C)CCCOc1ccc2c(=O)c(-c3ccc(OC)cc3)coc2c1 [compound 5, 7-(3-(Ethyl(methyl)amino)propoxy)-3-(4-methoxyphenyl)-4H-chromen-4-one]	25.4	91.3		
CCN(C)CCOc1ccc2c(=O)c(-c3ccc(OC)cc3)coc2c1 [compound 4, 7-(2-(Ethyl(methyl)amino)ethoxy)-3-(4-methoxyphenyl)-4H-chromen-4-one]	58.7	84.1		
COc1ccc(-c2coc3cc(OCCN(C)Cc4ccccc4)ccc3c2=O)cc1 [compound 10, 7-(2-(Benzyl(methyl)amino)ethoxy)-3-(4-methoxyphenyl)-4H-chromen-4-one]	3.34	2.72		
